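Assay format: 96-well plates, 48-hour exposure. GI50 is the concentration that inhibits growth by half. TGI denotes the concentration required for complete inhibition of growth.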
Tests used:
Assay in all cases: growth of human tumour cells (NCI), 48 h
RPMI-8226 leukemia = tested on: RPMI-8226 leukemia
A498 renal = tested on: A498 renal
T-47D breast = tested on: T-47D breast
LOX IMVI melanoma = tested on: LOX IMVI melanoma
786-0 renal = tested on: 786-0 renal
K-562 leukemia = tested on: K-562 leukemia
SW-620 colon = tested on: SW-620 colon
HOP-92 NSCLC = tested on: HOP-92 NSCLC
HCC-2998 colon = tested on: HCC-2998 colon
PC-3 prostate = tested on: PC-3 prostate
SN12C renal = tested on: SN12C renal
UACC-257 melanoma = tested on: UACC-257 melanoma
SK-OV-3 ovarian = tested on: SK-OV-3 ovarian
SNB-19 CNS = tested on: SNB-19 CNS
HCT-15 colon = tested on: HCT-15 colon
U251 CNS = tested on: U251 CNS
SNB-75 CNS = tested on: SNB-75 CNS
NCI-H226 lung = tested on: NCI-H226 lung
OVCAR-4 ovarian = tested on: OVCAR-4 ovarian
M14 melanoma = tested on: M14 melanoma
UO-31 renal = tested on: UO-31 renal
MDA-MB-231 breast = tested on: MDA-MB-231 breast
OVCAR-8 ovarian = tested on: OVCAR-8 ovarian
UACC-62 melanoma = tested on: UACC-62 melanoma
OVCAR-3 ovarian = tested on: OVCAR-3 ovarian
SF-295 CNS = tested on: SF-295 CNS
CAKI-1 renal = tested on: CAKI-1 renal
COLO 205 colon = tested on: COLO 205 colon
HCT-116 colon = tested on: HCT-116 colon
MALME-3M melanoma = tested on: MALME-3M melanoma
OVCAR-5 ovarian = tested on: OVCAR-5 ovarian
NCI-H522 lung = tested on: NCI-H522 lung
NCI/ADR-RES ovarian = tested on: NCI/ADR-RES ovarian
SR leukemia = tested on: SR leukemia
KM12 colon = tested on: KM12 colon
ACHN renal = tested on: ACHN renal
SK-MEL-2 melanoma = tested on: SK-MEL-2 melanoma
SF-539 CNS = tested on: SF-539 CNS
EKVX NSCLC = tested on: EKVX NSCLC
MCF7 breast = tested on: MCF7 breast
HT29 colon = tested on: HT29 colon
HOP-62 NSCLC = tested on: HOP-62 NSCLC
SF-268 CNS = tested on: SF-268 CNS
HS 578T breast = tested on: HS 578T breast
BT-549 breast = tested on: BT-549 breast
RXF 393 renal = tested on: RXF 393 renal
DU-145 prostate = tested on: DU-145 prostate
NCI-H23 lung = tested on: NCI-H23 lung
MDA-MB-435 = tested on: MDA-MB-435
SK-MEL-5 melanoma = tested on: SK-MEL-5 melanoma
NCI-H460 lung = tested on: NCI-H460 lung
SK-MEL-28 melanoma = tested on: SK-MEL-28 melanoma
IGROV1 ovarian = tested on: IGROV1 ovarian
CCRF-CEM leukemia = tested on: CCRF-CEM leukemia

In the case of `FC(F)(F)c1cc(-c2nnc3n2N=C(N2CCCC2)CS3)cc(C(F)(F)F)c1`, the GI50 (RPMI-8226 leukemia) is reported as over 50 µM, the TGI (RPMI-8226 leukemia) is reported as over 50 µM and the GI50 (A498 renal) is reported as over 50 µM. The TGI (A498 renal) was over 50 µM, the GI50 (T-47D breast) was 19.3 µM and the TGI (T-47D breast) was over 50 µM. It also gave a GI50 (LOX IMVI melanoma) of over 50 µM, a TGI (LOX IMVI melanoma) of over 50 µM and a GI50 (786-0 renal) of 20.3 µM. For the same compound, the TGI (786-0 renal) was over 50 µM, the GI50 (K-562 leukemia) was over 50 µM and the TGI (K-562 leukemia) was over 50 µM. The GI50 (SW-620 colon) was over 50 µM, the TGI (SW-620 colon) was over 50 µM and the GI50 (HOP-92 NSCLC) was 25.9 µM. For the same compound, the TGI (HOP-92 NSCLC) was over 50 µM, the GI50 (HCC-2998 colon) was over 50 µM and the TGI (HCC-2998 colon) was over 50 µM. For the same compound, the GI50 (PC-3 prostate) was over 50 µM, the TGI (PC-3 prostate) was over 50 µM and the GI50 (SN12C renal) was over 50 µM. It also gave a TGI (SN12C renal) of over 50 µM, a GI50 (UACC-257 melanoma) of over 50 µM and a TGI (UACC-257 melanoma) of over 50 µM. The GI50 (SK-OV-3 ovarian) was 14.3 µM, the TGI (SK-OV-3 ovarian) was over 50 µM and the GI50 (SNB-19 CNS) was 30.2 µM. It also gave a TGI (SNB-19 CNS) of over 50 µM, a GI50 (HCT-15 colon) of over 50 µM and a TGI (HCT-15 colon) of over 50 µM. The GI50 (U251 CNS) was 18.1 µM, the TGI (U251 CNS) was over 50 µM and the GI50 (SNB-75 CNS) was 7.12 µM. It also gave a TGI (SNB-75 CNS) of 24.4 µM, a GI50 (NCI-H226 lung) of 24.6 µM and a TGI (NCI-H226 lung) of over 50 µM. For the same compound, the GI50 (OVCAR-4 ovarian) was over 50 µM, the TGI (OVCAR-4 ovarian) was over 50 µM and the GI50 (M14 melanoma) was over 50 µM. It also gave a TGI (M14 melanoma) of over 50 µM, a GI50 (UO-31 renal) of over 50 µM and a TGI (UO-31 renal) of over 50 µM. The GI50 (MDA-MB-231 breast) was 32.2 µM, the TGI (MDA-MB-231 breast) was over 50 µM and the GI50 (OVCAR-8 ovarian) was 32.9 µM. It also gave a TGI (OVCAR-8 ovarian) of over 50 µM, a GI50 (UACC-62 melanoma) of over 50 µM and a TGI (UACC-62 melanoma) of over 50 µM. It also gave a GI50 (OVCAR-3 ovarian) of 5.27 µM, a TGI (OVCAR-3 ovarian) of 28.8 µM and a GI50 (SF-295 CNS) of 19.2 µM. For the same compound, the TGI (SF-295 CNS) was over 50 µM, the GI50 (CAKI-1 renal) was over 50 µM and the TGI (CAKI-1 renal) was over 50 µM. The GI50 (COLO 205 colon) was over 50 µM, the TGI (COLO 205 colon) was over 50 µM and the GI50 (HCT-116 colon) was 7.99 µM. The TGI (HCT-116 colon) was over 50 µM, the GI50 (MALME-3M melanoma) was over 50 µM and the TGI (MALME-3M melanoma) was over 50 µM. The GI50 (OVCAR-5 ovarian) was over 50 µM, the TGI (OVCAR-5 ovarian) was over 50 µM and the GI50 (NCI-H522 lung) was 24 µM. The TGI (NCI-H522 lung) was over 50 µM, the GI50 (NCI/ADR-RES ovarian) was over 50 µM and the TGI (NCI/ADR-RES ovarian) was over 50 µM. It also gave a GI50 (SR leukemia) of 48.8 µM, a TGI (SR leukemia) of over 50 µM and a GI50 (KM12 colon) of over 50 µM. The TGI (KM12 colon) was over 50 µM, the GI50 (ACHN renal) was 10 µM and the TGI (ACHN renal) was over 50 µM. For the same compound, the GI50 (SK-MEL-2 melanoma) was over 50 µM, the TGI (SK-MEL-2 melanoma) was over 50 µM and the GI50 (SF-539 CNS) was 34 µM. It also gave a TGI (SF-539 CNS) of over 50 µM, a GI50 (EKVX NSCLC) of over 50 µM and a TGI (EKVX NSCLC) of over 50 µM. It also gave a GI50 (MCF7 breast) of over 50 µM, a TGI (MCF7 breast) of over 50 µM and a GI50 (HT29 colon) of over 50 µM. For the same compound, the TGI (HT29 colon) was over 50 µM, the GI50 (HOP-62 NSCLC) was 16.7 µM and the TGI (HOP-62 NSCLC) was over 50 µM. It also gave a GI50 (SF-268 CNS) of over 50 µM, a TGI (SF-268 CNS) of over 50 µM and a GI50 (HS 578T breast) of 17.9 µM. It also gave a TGI (HS 578T breast) of over 50 µM, a GI50 (BT-549 breast) of over 50 µM and a TGI (BT-549 breast) of over 50 µM. For the same compound, the GI50 (RXF 393 renal) was 26.6 µM, the TGI (RXF 393 renal) was over 50 µM and the GI50 (DU-145 prostate) was over 50 µM. For the same compound, the TGI (DU-145 prostate) was over 50 µM, the GI50 (NCI-H23 lung) was over 50 µM and the TGI (NCI-H23 lung) was over 50 µM. For the same compound, the GI50 (MDA-MB-435) was over 50 µM, the TGI (MDA-MB-435) was over 50 µM and the GI50 (SK-MEL-5 melanoma) was over 50 µM. The TGI (SK-MEL-5 melanoma) was over 50 µM, the GI50 (NCI-H460 lung) was 7.15 µM and the TGI (NCI-H460 lung) was over 50 µM. For the same compound, the GI50 (SK-MEL-28 melanoma) was over 50 µM, the TGI (SK-MEL-28 melanoma) was over 50 µM and the GI50 (IGROV1 ovarian) was over 50 µM. It also gave a TGI (IGROV1 ovarian) of over 50 µM, a GI50 (CCRF-CEM leukemia) of over 50 µM and a TGI (CCRF-CEM leukemia) of over 50 µM.

Reference: PubChem BioAssay (NCI)
